Literature values, collected in US7173016B2, “Composition and method for treating graft-versus-host disease” (Mayne Pharma (USA) Inc., priority 2001, dated 2007).

Settings: acid-catalyzed glycosidic cleavage

In the case of OC[C@H]1O[C@@H](n2cnc3c2NC=NC[C@H]3O)C[C@@H]1O [pentostatin, 2′-deoxycoformycin], the acid stability is listed as “highly acid-labile”.
